System: MTX-naïve adult patients with active, early RA (<3 years)
Assay: Study J: radiographic progression (TSS, joint erosion, joint space narrowing)
Type: in vivo, human
Set-up: key to mean change from baseline in TSS / Mean change in TSS / TSS after 2 years / change in TSS over 2 years / mean change in TSS from baseline / Mean ΔTSS at 1 year / Mean ΔTSS Yr 1-Yr 2: modified total Sharp score, 0-398 scale
Details: for Annualized rate of radiographic progression (ΔTSS): all pts in treatment arm
From the text: The co-primary endpoints, comparing MTX alone with the combination at 1 year, were the ACR50 response (using non-responder imputation), and inhibition of radiographic progression, as measured by change in total Sharp score (TSS). In this study, the term “Major Clinical Response” (MCR) meant a continuous ACR70 response for 6 or more consecutive months.
At 1 and 2 years, the American College of Rheumatology (ACR) responses (ACR20, ACR50, and ACR70), the Disease Activity Score 28 (DAS28), and the change (Δ) in Total Sharp Score (TSS) were determined for all patients. Results were analyzed for the intention-to-treat (ITT) population using imputation for missing data. Clinical remission was defined as DAS28<2.6. The mean ΔTSS values at 1 year and 2 years (N=791) were determined for patients in each ACR response category (ACR20/50/70) and for patients with DAS28<2.6
Radiographic progression was measured by Total Sharp Score (TSS) at baseline, and 1 and 2 years in the intention to treat population (ITT) using imputation for missing data. In this analysis, patients were divided into 1 of 2 categories by disease duration at baseline: <6 months (Group 1) or 6 months to 3 years (Group 2). Mean changes in TSS were reported for both groups by each of the 3 treatment arms from baseline to Year 1 and from Year 1 to Year 2.
Radiographic progression was assessed by mean change from baseline in Total Sharp Score (TSS) and stratified into those with (ΔTSS>0.5) and without (Δ≦TSS 0.5). Patients were categorized as either having radiographic progression at 1 year (ΔTSS>0.5) or not (Δ≦TSS 0.5). A logistic regression model was used to identify predictors of radiographic disease progression by testing several baseline characteristics, including age, disease duration, RF status, TJC, SJC, joint erosions, and CRP. For analyses of CRP, patients were categorized as normal (CRP≦0.8 mg/dL) or abnormal (CRP>0.8 mg/dL).
Mean change from baseline in Total Sharp Score (TSS) was measured at 6 months, 1 year, and 2 years in the intention-to-treat (ITT) population using imputation for missing data. Patients were classified as having radiographic progression (mean change in TSS>0.5) or without radiographic progression (ΔTSS≦0.5). Patients with inadequate data were excluded from this analysis.
Patients in the Ada+MTX and the MTX arms were classified according to level of clinical response (non-responder (<ACR20), ACR20, ACR50, or ACR70) and radiographic progression (Yes or No (ΔTSS≦0.5)). The ΔTSS was analyzed overall, and for ACR subgroups. This included determination of mean ΔTSS and probability plots.
Study J was a 2-year, double-blind, active comparator-controlled, Phase III study. […] For each patient, radiographs of hands and feet were taken at baseline, 6 months, 1 year and 2 years and evaluated for joint erosions (JE) and joint space narrowing (JSN) by 2 blinded radiologists. Changes from baseline in the modified total Sharp score (TSS, 0-398) were calculated for patients in each treatment arm. Cumulative probability plots were generated by estimating the probability of exceeding a given change in TSS. For each treatment, we calculated the percentages of patients whose ΔTSS exceeded specified thresholds, and the probability of having a given ΔTSS (using cumulative probability plots). For each of 4 cumulative probability ranges, 0-10%, 10-50%, 50-90% and 90-100% (higher numbered ranges=greater ΔTSS), mean ΔTSS values were calculated. In previous reports, Study J radiographic analyses employed linear imputation. In the present analysis, only observed data were employed, with no imputation.

[1] = Group 1, BL disease duration <6 mos (n=448)
[2] = Group 2, BL disease duration 6 mos to 3 yrs (n=333)
[3] = disease duration 6 months to 3 years
[4] = disease duration 6 months-3 years (n=333)

CN(Cc1cnc2nc(N)nc(N)c2n1)c1ccc(C(=O)N[C@@H](CCC(=O)O)C(=O)O)cc1 [mtx alone, methotrexate]
Annualized rate of radiographic progression (ΔTSS) (0-6 mos): 7.0 Sharp Score Units per Year | Annualized rate of radiographic progression (ΔTSS) (1-2 yrs): 4.7 Sharp Score Units per Year | patients with ΔTSS≦0.5 among those achieving DAS28 remission (1 year): 47% | Mean change in TSS (1 year, ACR20 responders): 3.9 | mean change in JE score (1 year, ACR20 responders): 2.0 | mean change in JSN (1 year, ACR20 responders): 1.4 | Mean change in TSS (1 year, ACR50 responders): 3.2 | mean change in JE score (1 year, ACR50 responders): 2.2 | mean change in JSN (1 year, ACR50 responders): 1.0 | Mean change in TSS (1 year, ACR70 responders): 2.7 | mean change in JE score (1 year, ACR70 responders): 1.6 | mean change in JSN (1 year, ACR70 responders): 1.1 | patients with no radiographic progression (1 year, abnormal baseline CRP normalized at 1 year): 33% | patients with no radiographic progression (1 year, elevated CRP at both baseline and 1 year): 31% | patients with no disease progression (ΔTSS≦0.5) (1 year, patients with CRP and X-rays available): 38% | Mean change in TSS (1 year, patients with DAS28<2.6): 1.9 | Mean change in TSS (1 year, patients with DAS28<2.6, listed as MTX alone): 2.8 | % of patients with >4 change TSS (2 years): 41.3% | % of patients with >10 change TSS (2 years): 23.3% | % of patients with >20 change TSS (2 years): 7% | patients with no radiographic progression (change in TSS ≦0.5) (2 years): 34% | patients with ΔTSS≦0.5 among those achieving DAS28 remission (2 years): 47% | Mean change TSS in radiographic progressors (ΔTSS > 0.5) (2 years, ACR20 responders): 9.4 | mean change in JE score (2 years, ACR20 responders): 3.6 | mean change in JSN (2 years, ACR20 responders): 2.3 | mean change in TSS from baseline (2 years, ACR20 responders): 5.5 | mean change in TSS from baseline (2 years, ACR20 responders, listed as MTX alone): 5.8 | Mean change TSS in radiographic progressors (ΔTSS > 0.5) (2 years, ACR50 responders): 8.5 | mean change in JE score (2 years, ACR50 responders): 3.0 | mean change in JSN (2 years, ACR50 responders): 1.8 | mean change in TSS from baseline (2 years, ACR50 responders): 4.9 | Mean change TSS in radiographic progressors (ΔTSS > 0.5) (2 years, ACR70 responders): 7.5 | mean change in JE score (2 years, ACR70 responders): 2.6 | mean change in JSN (2 years, ACR70 responders): 1.4 | mean change in TSS from baseline (2 years, ACR70 responders): 4.1 | Mean change in TSS (2 years, patients with DAS28<2.6): 2.8 | Mean change in TSS (2 years, patients with DAS28<2.6, listed as MTX alone): 1.9 | Frequency of radiographic progression (ΔTSS > 0.5), % of patients (2 years, ACR20 responders, observed data): 62% | Frequency of radiographic progression (ΔTSS > 0.5), % of patients (2 years, ACR50 responders, observed data): 60% | Frequency of radiographic progression (ΔTSS > 0.5), % of patients (2 years, ACR70 responders, observed data): 57% | Mean change TSS in radiographic progressors (ΔTSS > 0.5) (2 years, Non-responder (<ACR20)): 15.5 | Frequency of radiographic progression (ΔTSS > 0.5), % of patients (2 years, Non-responder (<ACR20), observed data): 75% | Mean change in TSS (2 years, all points (0-100), observed data): 6.4 | Mean change in TSS (2 years, cumulative probability range 0-10): −3.9 | Mean change in TSS (2 years, cumulative probability range 10-50): 0.5 | Mean change in TSS (2 years, cumulative probability range 50-90): 7.6 | Mean change in TSS (2 years, cumulative probability range 90-100): 31.4 | % of patients with >4 change TSS (6 months): 0% | % of patients with >10 change TSS (6 months): 1.7% | % of patients with >20 change TSS (6 months): 2.3% | patients with no radiographic progression (6 months): 51% | Mean change TSS in radiographic progressors (ΔTSS > 0.5) (6 months, ACR20 responders): 4.8 | Frequency of radiographic progression (ΔTSS > 0.5), % of patients (6 months, ACR20 responders, observed data): 55% | Mean change TSS in radiographic progressors (ΔTSS > 0.5) (6 months, ACR50 responders): 3.8 | Frequency of radiographic progression (ΔTSS > 0.5), % of patients (6 months, ACR50 responders, observed data): 51% | Mean change TSS in radiographic progressors (ΔTSS > 0.5) (6 months, ACR70 responders): 3.4 | Frequency of radiographic progression (ΔTSS > 0.5), % of patients (6 months, ACR70 responders, observed data): 49% | Mean change TSS in radiographic progressors (ΔTSS > 0.5) (6 months, Non-responder (<ACR20)): 10.8 | Frequency of radiographic progression (ΔTSS > 0.5), % of patients (6 months, Non-responder (<ACR20), observed data): 59% | Mean change in TSS (6 months, all points (0-100), observed data): 3.4 | Mean change in TSS (6 months, cumulative probability range 0-10): −2.0 | Mean change in TSS (6 months, cumulative probability range 10-50): 0.2 | Mean change in TSS (6 months, cumulative probability range 50-90): 4.4 | Mean change in TSS (6 months, cumulative probability range 90-100): 16.5 | Annualized rate of radiographic progression (ΔTSS) (6 mos-1 yr): 4.4 Sharp Score Units per Year | Mean change in TSS (26 weeks, observed data): 3.4 | Mean change in TSS (52 weeks, observed data): 5.2 | Mean change in TSS (104 weeks, observed data): 6.4 | Patients with No Radiographic Progression at 1 Year (CRP (BL and Year 1) Abnormal to Normal): 33% | Patients with No Radiographic Progression at 1 Year (CRP (BL and Year 1) Always Normal): 86% | Patients with No Radiographic Progression at 1 Year (CRP (BL and Year 1) Never Normal): 31% | Mean ΔTSS Yr 1-Yr 2 [1]: 5.8 | Mean ΔTSS at 1 year [1]: 7.4 | Mean ΔTSS Yr 1-Yr 2 [2]: 3.4 | Mean ΔTSS at 1 year [2]: 3.8 | No Progression at Month 6, % (Study J): 51% | No Progression at Month 6, patients/total (Study J): 129/252 | No Progression at Month 6 and Year 2, % (Study J): 61% | No Progression at Month 6 and Year 2, patients/Month-6 non-progressors (Study J): 79/129 | Yr-2 Non-P, % (among Mo-6 Non-Progressors): 61% | Yr-2 Non-P, number of patients (among Mo-6 Non-Progressors): 79 | Yr-2 Prog, % (among Mo-6 Non-Progressors): 39% | Yr-2 Prog, number of patients (among Mo-6 Non-Progressors): 50 | Yr-2 Non-P, % (among Mo-6 Progressors): 6% | Yr-2 Non-P, number of patients (among Mo-6 Progressors): 7 | Yr-2 Prog, % (among Mo-6 Progressors): 94% | Yr-2 Prog, number of patients (among Mo-6 Progressors): 116 | TSS after 2 years [3]: 32.2 | change in TSS over 2 years [3]: 7.2 | mean change TSS during year 1 [4]: 3.8 sharp score units | mean change TSS during year 2 [4]: 3.4 sharp score units | TSS after 2 years (disease duration <6 months): 32.4 | change in TSS over 2 years (disease duration <6 months): 13.2 | mean change TSS during year 1 (disease duration <6 months): 7.4 sharp score units | mean change TSS during year 2 (disease duration <6 months): 5.8 sharp score units | rate of change in TSS in ACR20 responders, relative to combination therapy (in vivo): 7 times | Mo-6 Non-Progressors, % of arm (no progression = ΔTSS≦0.5): 51% | Mo-6 Non-Progressors, number of patients (no progression = ΔTSS≦0.5): 129 | patients with no progression at year 2 (no progression at month 6): 61% | Mo-6 Progressors, % of arm (progression = ΔTSS>0.5): 49% | Mo-6 Progressors, number of patients (progression = ΔTSS>0.5): 123 | patients with no progression at year 2 (progression at month 6): 6% | mean change from baseline in TSS (week 26, ITT with imputation): 3.5 | mean change from baseline in TSS (week 52 (1 year), ITT with imputation): 5.7 | mean change from baseline in TSS (week 104 (2 years), ITT with imputation): 10.4

— patent publication US20120171123A1, “USES AND COMPOSITIONS FOR TREATMENT OF RHEUMATOID ARTHRITIS” (priority 2006, published 2012)
